Measured values reported in PMC11847324, “A communication hub for phosphoregulation of kinetochore-microtubule attachment” (Current biology : CB, 2024).
No end group written: not given here. *: point of attachment. BODIPYFLEthylmaleimide = Cc1cc(C)n2c1C=C1C=CC(CCC(=O)NCCN3C(=O)CC(*)C3=O)=[N+]1[B-]2(F)F

What was measured:
[1] = tested on: Ndc80c^dwarf Nuf2 F8A P9A; experiment: Fluorescence polarization direct binding to Ndc80c^dwarf bearing Nuf2 F8A P9A; design: species or system S. cerevisiae; conditions: Ndc80c^dwarf Nuf2 F8A P9A relative to wild-type Ndc80c^dwarf; Figure 3D
Description: (§1) Figure 3. Fluorescence polarization measurements of Ndc80c^dwarf binding peptides from the N-terminal extensions of Mps1 and Ipl1. (A) Polarization of fluorescence from 20 nM Bodipy-FL Mps1(137–171) (Mps1 residues 137–171 plus a C-terminal cysteine modified with Bodipy-FL -- see Methods) and Bodipy-FL Ipl1 (26–39;45–59) as a function of Ndc80c^dwarf concentration. (B) Competition binding experiment: unlabeled competitor peptides (see figure annotation) were added in twofold serial dilutions to Bodipy-FL Mps1(137–171) and Ndc80c^dwarf at final concentrations of 20 nM and 500 nM respectively. Loss of polarization indicates displacement of bound Bodipy-FL Mps1(137–171) by the competitor. (C) As in (B), with competitor Mps1(137–171) peptides containing mutations that reduce affinity for Ndc80c[40]. (D) Polarization of fluorescence from 20 nM Bodipy-FL Mps1(137–171) as a function of the concentration of Ndc80c^dwarf bearing mutations in Nuf2 that interfere with its Mps1 interaction in cells. […] For the Ipl1 peptide, the second copy of the motif, not used for the fluorescence polarization experiments, is shown in the bottom line.
(§2) We also determined the binding of the Mps1 peptide with two Ndc80c^dwarf constructs bearing mutations characterized in the other accompanying paper -- N128A and F8A P9A[48]. […]

Ndc80c^dwarf Nuf2 N128A = experiment: Fluorescence polarization direct binding to Ndc80c^dwarf bearing Nuf2 N128A; design: species or system S. cerevisiae; conditions: Ndc80c^dwarf Nuf2 N128A relative to wild-type Ndc80c^dwarf; Figure 3D
Description: as §1, §2

Ndc80c^dwarf = experiment: Pulldown of GST-fusions of Mps1 segments by Ndc80c^dwarf immobilized on Ni-NTA agarose; assay type: binding, S. cerevisiae; conditions: 6-His Ndc80c^dwarf on Ni-NTA agarose, 30 min incubation, SDS-PAGE read-out; Figure 1B lane 12
Source text: The long, N-terminal extension (residues 1–430) of yeast Mps1 has no immediately evident homology with sequences in metazoan Mps1 shown to interact with Ndc80c. […] We examined conservation among the yeast orthologs by iterative searches with the program Jackhmmer[50]. Using the N-terminal 430 residues of S. cerevisiae Mps1 as query, we identified five segments conserved among point-centromere yeasts (Figure 1A). We carried out a set of pulldown experiments, expressing them as GST-fusions and incubating them with the “dwarf” Ndc80c construct (Ndc80c^dwarf)[51] immobilized on Ni-NTA agarose (Figure 1B). In this format, we expected avidity from GST dimerization and multivalent display of Ndc80c to enhance the assay sensitivity. Ndc80c captured only the GST fusion of a peptide containing residues 151–171 (Figure 1B, lane 12), which include the most conserved region with a consensus sequence (151)RRxRRF(I/L/F)(3–4x)RxxxLGPAxR(170)(Figure 1C). Lysine appears occasionally in place of arginine, except for the invariant R at the end of the motif. […]
Figure 1. […] The bar graph above the N-terminal domain represents conservation determined by iterative searches with Jackhmmer[50] and shown as “information content”, defined in ref[68]. […]

Chain of Ndc80c^dwarf (P33895 1-150): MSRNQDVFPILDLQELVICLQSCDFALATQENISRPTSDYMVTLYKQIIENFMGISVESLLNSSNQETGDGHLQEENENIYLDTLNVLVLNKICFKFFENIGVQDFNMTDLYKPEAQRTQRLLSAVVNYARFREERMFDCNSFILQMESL
Chain of Ndc80c^dwarf (P40460 115-310, further chain): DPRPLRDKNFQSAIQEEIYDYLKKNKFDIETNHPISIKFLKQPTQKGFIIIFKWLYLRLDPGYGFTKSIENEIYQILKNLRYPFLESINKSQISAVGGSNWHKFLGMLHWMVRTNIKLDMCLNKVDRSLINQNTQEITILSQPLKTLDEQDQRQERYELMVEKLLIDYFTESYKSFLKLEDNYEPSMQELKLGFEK
Chain of Ndc80c^dwarf Nuf2 N128A (P40460 115-315 limits assumed): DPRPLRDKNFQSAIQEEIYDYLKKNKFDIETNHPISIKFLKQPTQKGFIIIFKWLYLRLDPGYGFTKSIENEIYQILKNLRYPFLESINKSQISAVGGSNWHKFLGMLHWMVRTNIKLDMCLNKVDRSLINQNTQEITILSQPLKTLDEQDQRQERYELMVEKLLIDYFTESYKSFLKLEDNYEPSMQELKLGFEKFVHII
Chain of Ndc80c^dwarf Nuf2 N128A (P33895 1-158 N128A limits assumed, further chain): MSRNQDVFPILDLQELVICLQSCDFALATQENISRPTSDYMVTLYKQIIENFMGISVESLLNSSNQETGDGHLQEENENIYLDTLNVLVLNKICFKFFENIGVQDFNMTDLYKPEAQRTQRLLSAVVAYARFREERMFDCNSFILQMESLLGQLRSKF
Chain of Ndc80c^dwarf Nuf2 F8A P9A (P40460 115-335 limits assumed): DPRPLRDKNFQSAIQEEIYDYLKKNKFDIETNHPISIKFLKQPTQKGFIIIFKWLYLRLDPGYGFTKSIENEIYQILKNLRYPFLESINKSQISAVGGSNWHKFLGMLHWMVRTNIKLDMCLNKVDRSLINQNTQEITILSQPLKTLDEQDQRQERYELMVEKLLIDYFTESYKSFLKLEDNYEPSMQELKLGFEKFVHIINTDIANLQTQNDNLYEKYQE
Chain of Ndc80c^dwarf Nuf2 F8A P9A (P33895 1-173 F8A/P9A limits assumed, further chain): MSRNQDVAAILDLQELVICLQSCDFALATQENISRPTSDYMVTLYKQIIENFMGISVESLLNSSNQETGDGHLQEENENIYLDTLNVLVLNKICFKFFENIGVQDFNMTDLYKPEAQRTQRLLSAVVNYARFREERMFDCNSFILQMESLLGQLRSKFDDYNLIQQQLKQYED

Substance | affinity weaker than for the wild-type protein [1] | affinity weaker than for the wild-type protein (Ndc80c^dwarf Nuf2 N128A) | capture of GST fusion by immobilized Ndc80c^dwarf (Ndc80c^dwarf)
Bodipy-FL Mps1(137–171): Mps1 residues 137–171 plus a C-terminal cysteine modified with Bodipy-FL (RQNMKEDITAKYAERRSKRFLISNRTTKLGPAKRAC(BODIPYFLEthylmaleimide)) | about 2 logs | about 2 logs | –
GST fusion of a peptide containing residues 151–171: GST-fusion of Mps1 residues 151–171 expressed from pGEX-6P1 (GSGGSGGSGGSGGSERRSKRFLISNRTTKLGPAKR; also: GST fusion, end not given here) | – | – | captured
